In patent US20030027286A1, “Bacterial promoters and methods of use” (priority 2000, published 2003):

What was measured:
[1] = tested on: Staphylococcus aureus cells expressing antisense to the β subunit of gyrase; test: Antibiotic IC50 plus/minus xylose in Staphylococcus aureus expressing antisense to gyrase β subunit; format: cell-based; details: antisense to gyrase β subunit under Xyl-T5; 12 mM vs 0 mM xylose; FIG. 15
Protocol: Sensitized cells were also used to identify the pathway in which a gene required for proliferation of Staphylococcus aureus lies. Antibiotics of various chemical classes and modes of action were purchased from chemical suppliers, for example Sigma Chemicals (St. Louis, Mo.). Stock solutions were prepared by dissolving each antibiotic in an appropriate aqueous solution based on information provided by the manufacturer. The final working solution of each antibiotic contained no more than 0.2% (w/v) of any organic solvent.
To determine its potency against a bacterial strain containing an antisense nucleic acid complementary to the sequence encoding the Beta (>) subunit of gyrase (which is required for proliferation) under the control of the Xyl-T5 fusion promoter, each antibiotic was serially diluted two or three fold in growth medium supplemented with the appropriate antibiotic for maintenance of the anti-sense construct. At least ten dilutions were prepared for each antibiotic.
Aliquots (25 μL) of each dilution were transferred to discrete wells of a 384-well microplate (the assay plate) using a multi-channel pipette. Quadruplicate wells were used for each dilution of an antibiotic under each treatment condition (plus and minus inducer). Each assay plate retained twenty wells for cell growth controls (growth media replacing antibiotic), ten wells for each treatment (plus and minus inducer, in this example xylose). Half the assay plate contained induced cells (in this example Staphylococcus aureus cells) and appropriate concentrations of inducer (in this example xylose) to maintain the state of induction while the other half of the assay plate contained non-induced cells in the absence of inducer.
Cells of a bacterial clone containing a construct in which expression of antisense complementary to the sequence encoding the β subunit of gyrase under the control of a xylose inducible promoter were grown into exponential growth (OD600 0.2 to 0.3) and then diluted 1:100 into fresh media containing either 12 mM or 0 mM inducer (xylose). These cultures were incubated at 37° C. for 2.5 hr. The presence of inducer (xylose) in the medium initiates and maintains production of antisense RNA from the antisense construct, in this case. After a 2.5 hr incubation, induced and non-induced cells were respectively diluted into an assay medium containing an appropriate concentration of the antibiotic for the maintenance of the anti-sense construct. In addition, medium used to dilute induced cells was supplemented with 24 mM xylose so that addition to the assay plate would result in a final xylose concentration of 12 mM. The cells were diluted to a final OD600 value of 0.0004.
Induced and non-induced cell suspensions were dispensed (25 :l/well) into the appropriate wells of the assay plate as discussed previously. The plate was then loaded into a plate reader and incubated at constant temperature while cell growth was monitored in each well by the measurement of light scattering at 595 nm. Growth was monitored every 5 minutes until the cell culture attained a stationary growth phase. For each concentration of antibiotic, a percentage inhibition of growth was calculated at the time point corresponding to mid-exponential growth for the associated control wells (no antibiotic, plus or minus xylose). For each antibiotic and condition (plus or minus xylose), plots of percent inhibition versus Log of antibiotic concentration were generated and IC50s determined.

[2] = tested on: E. coli expressing antisense RNA; test: Antibiotic sensitivity of E. coli sensitized by IPTG-induced antisense RNA; format: cell-based, Escherichia coli; details: for sensitivity to antibiotic of antisense-expressing clones: initial experiments
From the text: The effectiveness of the above cell-based assay was validated using constructs expressing antisense RNA to the proliferation required E. coli genes rplL, rplJ, and rplW encoding ribosomal proteins L7/L12, L10 and L23 respectively. These proteins are part of the protein synthesis apparatus of the cell and as such are required for proliferation. These constructs were used to test the effect of antisense expression on cell sensitivity to antibiotics known to bind to the ribosome and thereby inhibit protein synthesis. Constructs expressing antisense RNA to several other genes (elaD, visC, yohH, and atpE/B), the products of which are not involved in protein synthesis were used for comparison.
First, pLex5BA (Krause et al. 1997. J. Mol. Biol. 274: 365, the disclosure of which is incorporated herein by reference in its entirety) expression vectors containing antisense constructs to either rplW or to elaD were introduced into separate E. coli cell populations. Vector introduction is a technique well known to those of ordinary skill in the art. The expression vectors of this example contain IPTG inducible promoters that drive the expression of the antisense RNA in the presence of the inducer. However, those skilled in the art will appreciate that other inducible promoters may also be used. Suitable expression vectors are also well known in the art. The E. coli antisense clones to genes encoding ribosomal proteins L7/L12, L10 and L23 were used to test the effect of antisense expression on cell sensitivity to the antibiotics known to bind to these proteins. […]
The cell populations were exposed to a range of IPTG concentrations in liquid medium to obtain the growth inhibitory dose curve for each clone. First, seed cultures were grown to a particular turbidity that is measured by the optical density (OD) of the growth solution. […] The cells were grown for up to 15 hours and the extent of growth was determined by measuring the optical density of the cultures at 600 nm. […]

| SMILES | potency in induced cells as compared to uninduced cells [1] | other results |
| --- | --- | --- |
| CO/N=C(\C(=O)N[C@@H]1C(=O)N2C(C(=O)O)=C(COC(C)=O)CS[C@H]12)c1csc(N)n1 [cefotaxime] | not significantly different |  |
| CO[C@@]1(NC(=O)Cc2cccs2)C(=O)N2C(C(=O)O)=C(COC(N)=O)CS[C@@H]21 [cefoxitin] | not significantly different |  |
| CC[C@H]1OC(=O)[C@H](C)[C@@H](O[C@H]2C[C@@](C)(OC)[C@@H](O)[C@H](C)O2)[C@H](C)[C@@H](O[C@@H]2O[C@H](C)C[C@H](N(C)C)[C@H]2O)[C@](C)(O)C[C@@H](C)C(=O)[C@H](C)[C@@H](O)[C@]1(C)O [erythromycin] |  | sensitivity to antibiotic of antisense-expressing clones ([2]; clones antisense to non-protein synthesis genes elaD, atpB/E and visC): do not; sensitivity to antibiotic of antisense-expressing clones ([2]; clones antisense to protein synthesis genes (L7/L12 & L10, L7/L12 alone, L22, L18, rRNA, Elongation Factor G)): increased sensitivity |
| CC(=O)O[C@H]1C[C@@]2(C)[C@@H](C[C@@H](O)[C@H]3[C@@]4(C)CC[C@@H](O)[C@@H](C)[C@@H]4CC[C@@]32C)/C1=C(\CCC=C(C)C)C(=O)O [fusidic acid] | not significantly different |  |
| CCC[C@@H]1C[C@@H](C(=O)N[C@@H]([C@H]2O[C@H](SC)[C@H](O)[C@@H](O)[C@H]2O)[C@@H](C)O)N(C)C1 [lincomycin] | not significantly different |  |
| CCn1cc(C(=O)O)c(=O)c2ccc(C)nc21 [nalidixic acid] |  | sensitivity to antibiotic of antisense-induced cells ([2]; E. coli expressing antisense to rplL and rplJ (reduced L7/L12), IPTG): does not show increased sensitivity |
| CO[C@@H]1[C@@H](OC(N)=O)[C@@H](O)[C@H](Oc2ccc3c(O)c(NC(=O)c4ccc(O)c(CC=C(C)C)c4)c(=O)oc3c2C)OC1(C)C [novobiocin] | significantly different |  |
| NC[C@H]1O[C@H](O[C@H]2[C@H](O)[C@@H](O[C@H]3O[C@H](CO)[C@@H](O)[C@H](N)[C@H]3O)[C@H](N)C[C@@H]2N)[C@H](N)C[C@@H]1O [tobramycin] | not significantly different |  |
| COc1cc(Cc2cnc(N)nc2N)cc(OC)c1OC [trimethoprim] | not significantly different |  |
| CN[C@H](CC(C)C)C(=O)N[C@H]1C(=O)N[C@@H](CC(N)=O)C(=O)N[C@H]2C(=O)N[C@H]3C(=O)N[C@H](C(=O)N[C@H](C(=O)O)c4cc(O)cc(O)c4-c4cc3ccc4O)[C@H](O)c3ccc(c(Cl)c3)Oc3cc2cc(c3O[C@@H]2O[C@H](CO)[C@@H](O)[C@H](O)[C@H]2O[C@H]2C[C@](C)(N)[C@H](O)[C@H](C)O2)Oc2ccc(cc2Cl)[C@H]1O [vancomycin] | not significantly different |  |
